Numbering of substitutions follows the chain as printed. Where two headings read alike, the source gives them in different places.

In experiment [1] the target is T1, bovine pancreatic ribonuclease A (RNase) (Bos taurus, UniProt P61823).
T1 construct: gene RNASE1; mature RNase A; recombinant from pET22b(+) NdeI/HindIII in E. coli BL21 (wild type also from bovine pancreas, Sigma type II); no tag mentioned
T1 sequence (P61823 27-150): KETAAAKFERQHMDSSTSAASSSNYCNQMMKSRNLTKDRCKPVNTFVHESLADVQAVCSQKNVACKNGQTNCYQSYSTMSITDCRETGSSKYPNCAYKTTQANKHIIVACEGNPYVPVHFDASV
The experiment is described as follows: intrinsic (tyrosine) fluorescence quenching titration, nonlinear regression. Conditions: read-out: Wild-type. In kind it is binding. From the text: (§1) intrinsic (tyrosine) fluorescence quenching titration, nonlinear regression on bovine pancreatic ribonuclease A (RNase)

Experiment [2] addresses T2, bovine pancreatic ribonuclease A (RNase) (Bos taurus, UniProt P61823, K67R).
T2 construct: gene RNASE1; mature RNase A; recombinant from pET22b(+) NdeI/HindIII in E. coli BL21 (wild type also from bovine pancreas, Sigma type II); no tag mentioned
T2 sequence (P61823 27-150 K67R): T1 sequence (P61823 27-150) with K41R
The description is as above. In kind it is binding.
From the text: as §1

Regarding `Cc1ncc(COP(=O)(O)O)c(CN[C@@H](C)C(=O)O)c1O` [PPL-L-alanine], the Kd in experiment [1] and in experiment [2] (read-out: Wild-type) was 23 ± 1 µM each time.
`Cc1ncc(COP(=O)(O)O)c(CN[C@H](C)C(=O)O)c1O` [PPL-D-alanine]: the Kd was 45 ± 1 µM in experiment [1] and 40 ± 3 µM in experiment [2] (read-out: K41R).
The matching figures for `Cc1ncc(COP(=O)(O)O)c(CN)c1O` [PMP]: 106 ± 5 µM and 107 ± 3 µM.
Regarding `Cc1ncc(COP(=O)(O)O)c(C=O)c1O` [PLP], the Kd in experiment [1] amounted to 120 ± 5 µM; in experiment [2] (read-out: K41R), 140 ± 10 µM.

The values are drawn from publication PMC2443152, “Molecular evolution of B6 enzymes: Binding of pyridoxal-5'-phosphate and Lys41Arg substitution turn ribonuclease A into a model B6 protoenzyme” (BMC Biochemistry, 2008).
